# Laboratory results: publication PMC6199744, “Development of Chemical Proteomics for the Folateome and Analysis of the Kinetoplastid Folateome” (ACS Infectious Diseases, 2018)
# Where two headings read alike, the source gives them in different places.
# What was measured:
# Type in all cases: binding
# [1] = target: T1, HeLa cell extract proteins (Homo sapiens, UniProt O95816)
# T1 construct: endogenous in cells; host or cells: HeLa cell extract
# [2] = target: T2, HeLa cell extract proteins (Homo sapiens, UniProt P04792)
# T2 construct: endogenous in cells; host or cells: HeLa cell extract
# [3] = target: T3, HeLa cell extract proteins (Homo sapiens, UniProt P06753)
# T3 construct: endogenous in cells; host or cells: HeLa cell extract
# [4] = target: T4, HeLa cell extract proteins (Homo sapiens, UniProt P27797)
# T4 construct: endogenous in cells; host or cells: HeLa cell extract
# T4 sequence (P27797 18-417): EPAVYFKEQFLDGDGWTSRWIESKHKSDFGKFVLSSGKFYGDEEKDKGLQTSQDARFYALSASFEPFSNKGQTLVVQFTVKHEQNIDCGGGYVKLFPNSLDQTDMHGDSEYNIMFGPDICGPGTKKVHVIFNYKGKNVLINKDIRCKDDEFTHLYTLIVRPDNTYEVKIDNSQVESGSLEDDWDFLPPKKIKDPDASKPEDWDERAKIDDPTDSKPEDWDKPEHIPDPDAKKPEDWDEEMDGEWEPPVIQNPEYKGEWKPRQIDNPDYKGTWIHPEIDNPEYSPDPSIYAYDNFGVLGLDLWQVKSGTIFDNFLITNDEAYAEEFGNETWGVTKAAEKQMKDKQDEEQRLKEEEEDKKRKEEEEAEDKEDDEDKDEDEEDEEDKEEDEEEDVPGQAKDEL
# [5] = target: T5, HeLa cell extract proteins (Homo sapiens, UniProt P41091)
# T5 construct: endogenous in cells; host or cells: HeLa cell extract
# [6] = target: T6, HeLa cell extract proteins (Homo sapiens, UniProt P49368)
# T6 construct: endogenous in cells; host or cells: HeLa cell extract
# T6 sequence (P49368 1-545): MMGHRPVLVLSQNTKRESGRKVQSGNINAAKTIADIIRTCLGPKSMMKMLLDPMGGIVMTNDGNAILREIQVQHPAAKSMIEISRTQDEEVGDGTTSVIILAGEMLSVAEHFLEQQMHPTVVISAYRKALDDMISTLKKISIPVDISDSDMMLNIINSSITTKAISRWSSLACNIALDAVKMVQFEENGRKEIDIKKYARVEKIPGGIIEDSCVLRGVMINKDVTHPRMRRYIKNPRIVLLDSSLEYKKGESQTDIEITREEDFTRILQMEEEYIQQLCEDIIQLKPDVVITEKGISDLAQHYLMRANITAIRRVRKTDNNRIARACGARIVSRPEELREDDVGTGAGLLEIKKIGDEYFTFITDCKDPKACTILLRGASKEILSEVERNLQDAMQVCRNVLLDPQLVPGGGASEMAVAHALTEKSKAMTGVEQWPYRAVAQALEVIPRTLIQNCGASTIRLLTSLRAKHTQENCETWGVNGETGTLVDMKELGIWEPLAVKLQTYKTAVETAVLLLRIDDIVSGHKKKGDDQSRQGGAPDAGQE
# [7] = target: T7, HeLa cell extract proteins (Homo sapiens, UniProt P52272)
# T7 construct: endogenous in cells; host or cells: HeLa cell extract
# T7 sequence (P52272 1-730): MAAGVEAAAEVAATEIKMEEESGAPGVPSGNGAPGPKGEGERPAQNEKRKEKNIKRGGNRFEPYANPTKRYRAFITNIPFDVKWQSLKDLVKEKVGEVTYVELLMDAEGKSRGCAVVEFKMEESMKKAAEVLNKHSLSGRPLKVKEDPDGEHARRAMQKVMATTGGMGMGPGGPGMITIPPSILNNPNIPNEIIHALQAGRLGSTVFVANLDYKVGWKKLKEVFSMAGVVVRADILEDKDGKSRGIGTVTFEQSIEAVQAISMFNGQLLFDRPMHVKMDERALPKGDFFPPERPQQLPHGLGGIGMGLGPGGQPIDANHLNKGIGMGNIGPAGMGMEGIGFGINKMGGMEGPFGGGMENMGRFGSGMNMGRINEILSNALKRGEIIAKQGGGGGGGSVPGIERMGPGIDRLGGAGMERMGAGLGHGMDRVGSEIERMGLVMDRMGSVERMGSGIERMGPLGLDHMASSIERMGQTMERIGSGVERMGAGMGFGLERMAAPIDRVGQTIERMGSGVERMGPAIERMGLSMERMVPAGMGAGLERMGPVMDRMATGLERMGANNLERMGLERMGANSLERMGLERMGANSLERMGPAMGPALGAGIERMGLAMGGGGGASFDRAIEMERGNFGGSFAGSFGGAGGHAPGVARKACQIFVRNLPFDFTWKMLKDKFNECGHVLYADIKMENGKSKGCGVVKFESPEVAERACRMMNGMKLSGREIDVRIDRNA
# [8] = target: T8, HeLa cell extract proteins (Homo sapiens, UniProt Q7Z3U7)
# T8 construct: endogenous in cells; host or cells: HeLa cell extract
# [9] = target: T9, HeLa cell extract proteins (Homo sapiens, UniProt Q9NVE7)
# T9 construct: endogenous in cells; host or cells: HeLa cell extract
# T9 sequence (Q9NVE7 1-773): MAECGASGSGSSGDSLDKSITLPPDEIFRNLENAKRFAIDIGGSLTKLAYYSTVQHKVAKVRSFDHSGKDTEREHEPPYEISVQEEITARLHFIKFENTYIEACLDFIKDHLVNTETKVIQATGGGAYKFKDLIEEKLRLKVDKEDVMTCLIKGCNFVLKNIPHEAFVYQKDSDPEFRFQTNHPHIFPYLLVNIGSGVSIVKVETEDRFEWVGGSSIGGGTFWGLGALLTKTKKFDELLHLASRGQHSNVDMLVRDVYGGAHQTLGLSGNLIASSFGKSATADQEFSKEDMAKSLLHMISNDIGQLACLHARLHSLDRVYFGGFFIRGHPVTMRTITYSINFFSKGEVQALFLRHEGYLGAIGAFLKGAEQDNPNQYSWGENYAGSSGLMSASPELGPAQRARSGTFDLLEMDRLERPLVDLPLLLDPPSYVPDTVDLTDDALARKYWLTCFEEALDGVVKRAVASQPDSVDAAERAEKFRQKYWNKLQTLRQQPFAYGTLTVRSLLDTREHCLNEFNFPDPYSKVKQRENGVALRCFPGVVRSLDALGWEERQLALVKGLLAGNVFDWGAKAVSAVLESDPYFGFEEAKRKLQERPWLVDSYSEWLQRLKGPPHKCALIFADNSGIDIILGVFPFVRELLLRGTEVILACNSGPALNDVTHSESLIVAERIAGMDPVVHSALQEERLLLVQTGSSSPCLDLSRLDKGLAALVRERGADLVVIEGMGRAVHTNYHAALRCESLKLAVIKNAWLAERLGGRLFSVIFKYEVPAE
# T3 sequence (P06753 whole entry): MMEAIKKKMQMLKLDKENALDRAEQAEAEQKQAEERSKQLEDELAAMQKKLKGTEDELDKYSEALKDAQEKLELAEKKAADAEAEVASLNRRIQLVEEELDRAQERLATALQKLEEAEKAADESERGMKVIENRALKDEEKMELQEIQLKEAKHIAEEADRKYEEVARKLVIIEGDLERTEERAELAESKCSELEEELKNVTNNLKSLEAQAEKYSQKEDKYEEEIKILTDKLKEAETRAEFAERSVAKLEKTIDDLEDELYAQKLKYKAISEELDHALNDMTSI
# T2 sequence (P04792 whole entry): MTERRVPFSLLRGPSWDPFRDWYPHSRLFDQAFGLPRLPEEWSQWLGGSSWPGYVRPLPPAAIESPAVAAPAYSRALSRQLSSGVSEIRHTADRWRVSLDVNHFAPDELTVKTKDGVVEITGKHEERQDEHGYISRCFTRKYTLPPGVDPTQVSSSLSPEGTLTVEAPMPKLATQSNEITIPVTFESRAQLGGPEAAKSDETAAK
# T5 sequence (P41091 whole entry): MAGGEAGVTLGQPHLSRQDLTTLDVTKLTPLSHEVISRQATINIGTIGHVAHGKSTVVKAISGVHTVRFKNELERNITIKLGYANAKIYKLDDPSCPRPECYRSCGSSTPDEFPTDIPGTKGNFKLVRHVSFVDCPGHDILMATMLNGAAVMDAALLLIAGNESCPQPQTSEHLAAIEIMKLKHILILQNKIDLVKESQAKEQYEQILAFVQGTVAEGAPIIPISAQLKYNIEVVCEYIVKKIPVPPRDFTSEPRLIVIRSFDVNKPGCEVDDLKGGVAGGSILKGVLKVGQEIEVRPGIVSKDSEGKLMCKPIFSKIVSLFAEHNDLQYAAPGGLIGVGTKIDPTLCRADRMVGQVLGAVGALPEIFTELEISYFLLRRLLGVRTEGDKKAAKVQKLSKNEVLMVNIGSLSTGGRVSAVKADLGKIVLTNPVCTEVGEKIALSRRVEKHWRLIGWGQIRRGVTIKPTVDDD
# T1 sequence (O95816 whole entry): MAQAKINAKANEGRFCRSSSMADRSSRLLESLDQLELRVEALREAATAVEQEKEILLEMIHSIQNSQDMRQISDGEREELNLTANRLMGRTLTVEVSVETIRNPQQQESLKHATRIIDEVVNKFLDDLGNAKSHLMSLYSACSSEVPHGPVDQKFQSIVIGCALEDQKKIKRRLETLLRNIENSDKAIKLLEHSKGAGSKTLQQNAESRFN
# T8 sequence (Q7Z3U7 whole entry): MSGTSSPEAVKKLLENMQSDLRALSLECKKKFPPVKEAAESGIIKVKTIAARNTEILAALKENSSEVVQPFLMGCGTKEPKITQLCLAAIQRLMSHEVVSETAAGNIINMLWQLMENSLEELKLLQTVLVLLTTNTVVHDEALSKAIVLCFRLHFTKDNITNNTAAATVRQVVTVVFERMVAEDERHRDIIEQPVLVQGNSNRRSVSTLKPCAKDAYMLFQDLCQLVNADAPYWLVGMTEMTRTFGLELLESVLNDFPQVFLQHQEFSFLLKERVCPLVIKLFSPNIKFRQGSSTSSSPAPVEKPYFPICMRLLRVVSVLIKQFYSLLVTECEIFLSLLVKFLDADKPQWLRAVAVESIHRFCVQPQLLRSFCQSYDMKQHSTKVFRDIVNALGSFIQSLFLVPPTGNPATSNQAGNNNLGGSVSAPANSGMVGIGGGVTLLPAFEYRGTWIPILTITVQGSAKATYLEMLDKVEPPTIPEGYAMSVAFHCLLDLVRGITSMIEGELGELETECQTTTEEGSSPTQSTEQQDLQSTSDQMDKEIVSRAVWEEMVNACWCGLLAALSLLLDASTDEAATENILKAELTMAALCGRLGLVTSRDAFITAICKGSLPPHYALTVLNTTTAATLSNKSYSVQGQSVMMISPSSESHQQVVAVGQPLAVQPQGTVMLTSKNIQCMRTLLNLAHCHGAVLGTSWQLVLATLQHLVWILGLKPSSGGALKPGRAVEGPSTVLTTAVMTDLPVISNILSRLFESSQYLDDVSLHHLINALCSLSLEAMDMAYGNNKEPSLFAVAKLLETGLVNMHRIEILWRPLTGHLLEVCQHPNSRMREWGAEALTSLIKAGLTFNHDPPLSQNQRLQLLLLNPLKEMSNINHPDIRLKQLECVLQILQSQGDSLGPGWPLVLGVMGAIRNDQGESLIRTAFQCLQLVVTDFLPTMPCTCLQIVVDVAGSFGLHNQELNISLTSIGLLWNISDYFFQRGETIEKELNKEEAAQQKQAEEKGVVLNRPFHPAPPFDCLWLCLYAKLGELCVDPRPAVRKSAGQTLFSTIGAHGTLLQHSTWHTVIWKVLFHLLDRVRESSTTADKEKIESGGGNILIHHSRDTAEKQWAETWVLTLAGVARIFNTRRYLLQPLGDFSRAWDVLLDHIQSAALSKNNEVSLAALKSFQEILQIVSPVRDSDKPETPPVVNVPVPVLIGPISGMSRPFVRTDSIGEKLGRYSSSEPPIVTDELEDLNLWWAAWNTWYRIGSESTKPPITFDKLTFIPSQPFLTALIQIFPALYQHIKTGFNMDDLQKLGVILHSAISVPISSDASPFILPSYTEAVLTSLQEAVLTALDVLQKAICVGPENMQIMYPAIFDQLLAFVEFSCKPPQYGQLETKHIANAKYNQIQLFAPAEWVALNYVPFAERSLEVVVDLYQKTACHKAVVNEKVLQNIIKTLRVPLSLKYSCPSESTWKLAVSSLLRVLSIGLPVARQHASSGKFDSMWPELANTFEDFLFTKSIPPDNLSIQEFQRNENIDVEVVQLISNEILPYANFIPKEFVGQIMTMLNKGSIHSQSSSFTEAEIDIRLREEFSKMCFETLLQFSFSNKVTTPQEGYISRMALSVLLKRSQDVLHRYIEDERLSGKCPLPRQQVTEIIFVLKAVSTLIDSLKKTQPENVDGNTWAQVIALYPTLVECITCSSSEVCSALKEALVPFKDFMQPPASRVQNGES
SMILES,"fold changes relative to vehicle control ([1]; HeLa, protein BAG2)","fold changes relative to vehicle control ([2]; HeLa, protein HSPB1)","fold changes relative to vehicle control ([3]; protein TPM3, HeLa)","fold changes relative to vehicle control ([4]; HeLa, protein CALR)","fold changes relative to vehicle control ([5]; protein EIF2S3, HeLa)","fold changes relative to vehicle control ([6]; protein CCT3, HeLa)","fold changes relative to vehicle control ([7]; HeLa, captured protein HNRNPM)","fold changes relative to vehicle control ([8]; HeLa, captured protein MON2)","fold changes relative to vehicle control ([9]; HeLa, captured protein PANK4)","fold changes relative to vehicle control ([1]; captured protein BAG2, HeLa)","fold changes relative to vehicle control ([2]; protein HSPB1, HeLa)","fold changes relative to vehicle control ([7]; HeLa, protein HNRNPM)","fold changes relative to vehicle control ([8]; HeLa, protein MON2)","fold changes relative to vehicle control ([9]; captured protein PANK4, HeLa)",other results
"Nc1nc2c(c(=O)[nH]1)N(C=O)C(CNc1ccc(C(=O)N[C@@H](CCC(=O)O)C(=O)O)cc1)CN2 (stereo partly drawn) [LEU, leucovorin]",0.96,1.01,0.93,1.15,0.81,0.88,0.83,1.04,0.97,–,–,–,–,–,–
"Nc1nc2[nH]cc(CCc3ccc(C(=O)N[C@@H](CCC(=O)O)C(=O)O)cc3)c2c(=O)[nH]1 [PTX, pemetrexed]",–,–,–,–,–,–,–,–,–,–,–,–,–,–,fold changes relative to vehicle control [1]: 0.95; fold changes relative to vehicle control [2]: 1; fold changes relative to vehicle control [3]: 0.89; fold changes relative to vehicle control [4]: 1.22; fold changes relative to vehicle control [5]: 0.87; fold changes relative to vehicle control [6]: 1; fold changes relative to vehicle control [7]: 0.99; fold changes relative to vehicle control [8]: 1.05; fold changes relative to vehicle control [9]: 0.93
CCCCCCOc1ccc(Cc2cnc(N)nc2N)cc1 [compound 1],–,–,1.18,–,1.07,1.22,–,–,–,0.9,1.09,1.09,1.11,0.98,"fold changes relative to vehicle control ([4]; HeLa, protein CALR (CA[…].)): 1.46 fold"
CCCCCCOc1cccc(Cc2cnc(N)nc2N)c1 [compound 2],–,–,2.05,–,1.13,1.72,–,–,–,1.15,1.38,1.21,1.08,1.12,"fold changes relative to vehicle control ([4]; HeLa, protein CALR (CALRETICULIN PRECURSOR.)): 3.14 fold"
Nc1nc2cccc(-c3ccccc3)c2n1Cc1ccc(Cl)c(Cl)c1 [compound 3],–,–,0.87,–,1.06,1.06,–,–,–,0.88,0.88,0.88,1.18,1.02,"fold changes relative to vehicle control ([4]; HeLa, protein CALR (CA[…].)): 0.77 fold"
NCCOCCOCC(=O)Nc1nc2ncc(CNc3ccc(C(=O)NC(CCC(=O)O)C(=O)O)cc3)nc2c(=O)[nH]1 (stereo not drawn) [compound 6],0.97,1.07,1.18,1.33,1.07,1.16,1.01,1.17,0.96,–,–,–,–,–,–
NCCCNc1ccc(C(=O)NC(CCC(=O)O)C(=O)O)cc1 (stereo not drawn) [compound 7],0.97,0.94,1.1,0.93,1,1,1.02,1.25,1.04,–,–,–,–,–,–
